Reference: patent US8399493B2, “Pyridinone derivatives and their use as positive allosteric modulators of mGluR2-receptors” (Janssen Pharmaceuticals, Inc., priority 2004, dated 2013)

Target: T1, native rat mGluR2 (Rattus norvegicus, UniProt P31421)
T1 construct: from tissue; host or cells: rat brain cortex membranes (Sprague-Dawley rats, Charles River Laboratories)
Assay: [35S]GTPγS binding assay using cortical rat brain membranes
Assay type: biochemical
Settings: selective mGluR2 agonist such as LY379268; rat cortical membranes; 3 or 10 μM of positive allosteric modulator
Text: The [^35S]GTPγS binding is a functional membrane-based assay used to study G-protein coupled receptor (GPCR) function. This method is using a binding assay to assess the initial step in receptor-mediated G protein activation in membranes prepared from cells expressing recombinant GPCR or using membranes from discrete area of the rat brain. In brief, the assay is measuring the activation of G proteins by catalyzing the exchange of guanosine 5′-diphosphate (GDP) by guanosine 5′-triphosphate (GTP) at the α subunit. The GTP-bounded G proteins dissociate into two subunits, Gα-GTP and Gβγ, which in turn regulate intracellular enzymes and ion channels. GTP is rapidly hydrolysed by the Gα-subunit (GTPases) and the G protein is deactivated and ready for new GTP exchange cycle (Harper (1998) Curr Protoc Pharmacol 2.6.1-10, John Wiley & Sons, Inc.). [^35S]GTPγS, a non-hydrolyzed analogue of GTP, is used for this purpose.
This method is widely used to study receptor activation of G protein in membranes prepared from rat brain tissue, including mGluR2 receptors (Schaffhauser et al 2003, Pinkerton et al, 2004). mGluR2 receptors are expressed in the rat brain cortex (Mutel et al (1998) J. Neurochem. 71:2558-64; Schaffhauser et al (1998) Mol. Pharmacol. 53:228-33) and are coupled to Gαi-protein, a preferential coupling for this method.
[^35S]GTPγS binding assay using cortical rat brain membranes preparation was used and adapted from Schaffhauser et al ((2003) Mol. Pharmacol. 4:798-810) for the detection of the positive allosteric modulator properties of the compounds of this invention on native rat mGluR2. In order to eliminate the possible interference with group III Gαi-protein coupled mGluRs (mGluR4, mGluR7, mGluR8; mGluR6 is not expressed in the cortex (Laurie et al (1997) Neuropharmacol. 36:145-52)), the potentiation of the response to a selective mGluR2 agonist, such as DCG-IV (Cartmell et al. (1998) Br. J. Pharmacol. 123(3):497-504) or LY379268 (Monn et al. (1999) J. Med. Chem 42:1027-40), by compounds described in the present invention was performed.
Cortices were dissected out from brains of 200-300 g Sprague-Dawley rats (Charles River Laboratories, L'Arbresle, France). Tissues were homogenized in 6 volumes (vol/wt) of 10% sucrose at 4° C. using a glass-teflon homogenizer. The homogenate was centrifuged at 1250 g for 10 min, and the supernatant was centrifuged at 40,000 g for 20 min (4° C.). The pellet was resuspended in 25 ml water using a Polytron disrupter (Kinematica AG, Luzern, Switzerland) and centrifuged for 10 min at 3000 g. (4° C.). The supernatant was centrifuged at 40,000 g for 20 min (4° C.). The supernatant was discarded and the pellet washed twice by resuspension in 10 volumes 5 mM HEPES-KOH, pH 7.4. The homogenate was frozen and thawed twice and centrifuged at 40,000 g for 20 min. The final pellet was resuspended in 5 mM HEPES-KOH, pH 7.4 and stored at −80° C. before its use. Protein concentration was determined by the Bradford method (Bio-Rad protein assay, Reinach, Switzerland) with bovine serum albumin as standard.
Measurement of mGluR2 positive allosteric modulators properties in rat cortical membranes was performed as follows: rat cortical membrane (1.5 μg) were incubated in 96-well microplates for 15 min at 30° C. in assay buffer (50 mM HEPES pH 7.4, 100 mM NaCl, 5 mM MgCl2, 10 μM GDP, 10 μg/ml saponin, EGTA 0.2 mM) with increasing concentrations of positive allosteric modulator (from 1 nM to 10 μM) and a minimal concentration of DCG-IV or LY379268, a selective mGluR2 agonist, that has been determined in previous experiments and that corresponds to the EC20, a concentration that gives 20% of the maximal response of the agonist, and is in accordance to published data (Pin et al. (1999) Eur. J. Pharmacol. 375:277-294). […]

T1 sequence (P31421 19-872): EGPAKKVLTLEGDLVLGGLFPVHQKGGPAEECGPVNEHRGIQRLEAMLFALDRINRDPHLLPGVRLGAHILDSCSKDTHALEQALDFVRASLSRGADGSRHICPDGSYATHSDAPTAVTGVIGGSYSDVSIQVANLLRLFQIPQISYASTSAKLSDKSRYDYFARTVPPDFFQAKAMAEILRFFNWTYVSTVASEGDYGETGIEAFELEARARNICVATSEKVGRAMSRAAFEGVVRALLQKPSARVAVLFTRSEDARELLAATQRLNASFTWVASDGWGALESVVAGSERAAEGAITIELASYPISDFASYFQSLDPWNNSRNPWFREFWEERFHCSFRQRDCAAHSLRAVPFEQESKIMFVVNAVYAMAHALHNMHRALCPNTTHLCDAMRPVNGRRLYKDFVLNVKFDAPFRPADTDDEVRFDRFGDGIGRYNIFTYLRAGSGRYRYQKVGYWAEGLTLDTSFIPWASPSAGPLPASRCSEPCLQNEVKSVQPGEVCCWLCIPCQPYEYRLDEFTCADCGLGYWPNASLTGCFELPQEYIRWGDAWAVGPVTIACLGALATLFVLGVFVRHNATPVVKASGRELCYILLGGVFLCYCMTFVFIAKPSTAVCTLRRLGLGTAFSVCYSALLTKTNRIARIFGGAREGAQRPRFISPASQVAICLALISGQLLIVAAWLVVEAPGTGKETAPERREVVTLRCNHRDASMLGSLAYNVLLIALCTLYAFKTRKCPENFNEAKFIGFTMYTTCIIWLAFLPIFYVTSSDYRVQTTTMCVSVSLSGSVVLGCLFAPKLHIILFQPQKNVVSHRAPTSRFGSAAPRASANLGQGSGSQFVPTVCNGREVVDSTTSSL

SMILES	Activity: left-ward shift of agonist mGluR2 concentration-response curve
COc1cccc(Cc2ccc(=O)n(Cc3ccc(Cl)cc3)c2)c1 [3-02, 5-(3-Methoxybenzyl)-1-(4-chlorobenzyl)pyridin-2(1H)-one]	++ (left-ward shift of agonist mGluR2 concentration-response curve [2- to 3.5-fold])
COCCc1cc(=O)n(Cc2ccc(Cl)cc2)cc1-c1ccc(OC)cc1 [9-17, 1-(4-Chlorobenzyl)-4-(2-methoxyethyl)-5-(4-methoxyphenyl)pyridin-2(1H)-one]	+ (left-ward shift of agonist mGluR2 concentration-response curve [<2])
COc1ccc(-c2cn(Cc3ccc(Cl)cc3F)c(=O)cc2OC)cc1 [9-18, 1-(4-Chloro-2-fluorobenzyl)-4-methoxy-5-(4-methoxyphenyl)pyridin-2(1H)-one]	+ (left-ward shift of agonist mGluR2 concentration-response curve [<2])

Tested on: not given
Assay: not given
Settings: not given

melting point	SMILES
141 °C	COc1ccc(-c2ccc(=O)n(Cc3ccc(Cl)cc3F)c2)cc1OC [6-31]
107 °C	CCCOc1ccc(-c2ccc(=O)n(Cc3ccc(Cl)cc3F)c2)cc1 [6-32]
88 °C	CC(C)COc1ccc(-c2ccc(=O)n(Cc3ccc(Cl)cc3F)c2)cc1 [6-33]
90 °C	COCCOc1ccc(-c2ccc(=O)n(Cc3ccc(Cl)cc3F)c2)cc1 [6-36]
114 °C	O=c1ccc(-c2ccc(OCc3ccco3)cc2)cn1Cc1ccc(Cl)cc1F [6-37]
124 °C	COC(=O)Oc1ccc(-c2ccc(=O)n(Cc3ccc(Cl)cc3F)c2)cc1 [6-39, 4-(1-(4-Chloro-2-fluorobenzyl)-6-oxo-1,6-dihydropyridin-3-yl)phenyl methyl carbonate]
127 °C	CC(=O)COc1ccc(-c2ccc(=O)n(Cc3ccc(Cl)cc3F)c2)cc1 [6-40, 1-(4-Chloro-2-fluorobenzyl)-5-(4-(2-oxopropoxy)phenyl)pyridin-2(1H)-one]
119 °C	COC(=O)COc1ccc(-c2ccc(=O)n(Cc3ccc(Cl)cc3F)c2)cc1 [6-41]
226 °C	NCCOc1ccc(-c2ccc(=O)n(Cc3ccc(Cl)cc3F)c2)cc1 [6-42]
253 °C	NCCCOc1ccc(-c2ccc(=O)n(Cc3ccc(Cl)cc3F)c2)cc1 [6-43]
85 °C	CN(C)CCOc1ccc(-c2ccc(=O)n(Cc3ccc(Cl)cc3F)c2)cc1 [6-44]
104 °C	CN(C)CCCOc1ccc(-c2ccc(=O)n(Cc3ccc(Cl)cc3F)c2)cc1 [6-45]
160 °C	N#CCOc1ccc(-c2ccc(=O)n(Cc3ccc(Cl)cc3F)c2)cc1 [6-46, 2-(4-(1-(4-Chloro-2-fluorobenzyl)-6-oxo-1,6-dihydropyridin-3-yl)-phenoxy)acetonitrile]
153 °C	O=c1ccc(-c2ccc(OCCCN3CCOCC3)cc2)cn1Cc1ccc(Cl)cc1F [6-48]
136 °C	COc1ccc(-c2ccc(=O)n(Cc3ccc(Cl)cc3F)c2)cn1 [6-51, 1-(4-Chloro-2-fluorobenzyl)-5-(6-methoxypyridin-3-yl)pyridin-2(1H)-one]
162 °C	CNC(=O)COc1ccc(-c2ccc(=O)n(Cc3ccc(Cl)cc3F)c2)cc1 [6-52]
153 °C	CC(=O)NCCOc1ccc(-c2ccc(=O)n(Cc3ccc(Cl)cc3F)c2)cc1 [6-53, N-(2-(4-(1-(4-Chloro-2-fluorobenzyl)-6-oxo-1,6-dihydropyridin-3-yl)phenoxy)ethyl)acetamide]
121 °C	CC(=O)N(CCOc1ccc(-c2ccc(=O)n(Cc3ccc(Cl)cc3F)c2)cc1)C(C)=O [6-55]
131 °C	CC(=O)N(CCCOc1ccc(-c2ccc(=O)n(Cc3ccc(Cl)cc3F)c2)cc1)C(C)=O [6-56]
194 °C	CC(=O)Nc1cccc(-c2ccc(=O)n(Cc3ccc(Cl)cc3F)c2)c1 [6-57]
230 °C	CC(=O)Nc1ccc(-c2ccc(=O)n(Cc3ccc(Cl)cc3F)c2)cc1 [6-58]
143 °C	CC(=O)NCc1cccc(-c2ccc(=O)n(Cc3ccc(Cl)cc3F)c2)c1 [6-60]
150 °C	CC(=O)NCc1ccc(-c2ccc(=O)n(Cc3ccc(Cl)cc3F)c2)cc1 [6-61]

melting point	SMILES
180 °C	O=C1CCCN1CCOc1ccc(-c2ccc(=O)n(Cc3ccc(Cl)cc3F)c2)cc1 [6-62]
135 °C	Cc1cc(COc2ccc(-c3ccc(=O)n(Cc4ccc(Cl)cc4F)c3)cc2)no1 [6-63]
90 °C	Cc1nc(COc2ccc(-c3ccc(=O)n(Cc4ccc(Cl)cc4F)c3)cc2)cs1 [6-66]
240 °C	O=c1ccc(-c2cccc(-c3nn[nH]n3)c2)cn1Cc1ccc(Cl)cc1F [6-67]
241 °C	O=c1ccc(-c2ccc(-c3nnn[nH]3)cc2)cn1Cc1ccc(Cl)cc1F [6-68]
110 °C	O=c1ccc(-c2ccc3sccc3c2)cn1Cc1ccc(Cl)cc1F [6-69, 1-(4-Chloro-2-fluorobenzyl)-5-(benzo[b]thiophen-5-yl)pyridin-2(1H)-one]
139 °C	CS(=O)(=O)NCCOc1ccc(-c2ccc(=O)n(Cc3ccc(Cl)cc3F)c2)cc1 [6-70]
157 °C	CS(=O)(=O)NCCCOc1ccc(-c2ccc(=O)n(Cc3ccc(Cl)cc3F)c2)cc1 [6-71]
110 °C	CS(=O)(=O)NCc1cccc(-c2ccc(=O)n(Cc3ccc(Cl)cc3F)c2)c1 [6-72]
141 °C	O=c1ccc(-c2ccc(S(=O)(=O)N3CCOCC3)cc2)cn1Cc1ccc(Cl)cc1F [6-74]
177 °C	O=c1ccc(-c2ccc(S(=O)(=O)N3CCCC3)cc2)cn1Cc1ccc(Cl)cc1F [6-75]
97 °C	COc1ccc(Cn2cc(-c3ccc(C(C)=O)cc3)ccc2=O)cc1 [6-76]
134 °C	COc1ccc(Cn2cc(-c3ccc(C#N)cc3)ccc2=O)cc1 [6-77]
160 °C	COc1ccc(-c2ccc(=O)n(Cc3ccc(C(F)(F)F)nc3)c2)cn1 [6-80]
149 °C	O=c1ccc(-c2ccccc2)cn1Cc1nc2ccccc2s1 [6-81]
93 °C	O=c1cc(OCCc2ccccc2)ccn1Cc1cccc(F)c1 [7-03, 1-(3-Fluorobenzyl)-4-phenethoxypyridin-2(1H)-one]
159 °C	CC(C)CCn1cc(-c2cccc(NS(C)(=O)=O)c2)ccc1=O [8-02, N-(3-(1-Isopentyl-6-oxo-1,6-dihydropyridin-3-yl)phenyl)methane-sulfonamide]
128 °C	COc1ccc(-c2cc(CO)c(=O)n(Cc3ccc(Cl)cc3)c2)cc1 [9-08, 1-(4-Chlorobenzyl)-3-(hydroxymethyl)-5-(4-methoxyphenyl)pyridin-2(1H)-one]
142 °C	O=c1ccc(CNc2ccccc2)cn1Cc1ccc(Cl)cc1 [16-01]
114 °C	COc1ccc(OCc2ccc(=O)n(Cc3ccc(Cl)cc3)c2)cc1 [16-02, 1-(4-Chlorobenzyl)-5-((4-methoxyphenoxy)methyl)pyridin-2(1H)-one]
89 °C	O=c1ccc(COc2ccccc2)cn1Cc1ccc(F)c(F)c1 [16-03, 1-(3,4-Difluorobenzyl)-5-(phenoxymethyl)pyridin-2(1H)-one]
86 °C	O=c1ccc(COc2ccccc2)cn1Cc1ccc(Cl)cc1F [16-04]
